Data set [1] can be described thus: Stability of desglymidodrine in solution (comparison of peak areas). The class given is physicochemical. Conditions: for 0 days (peak area), autoclave series: before autoclave. From the text: The tablets were subject to stability testning. […] The following initial results were obtained:
Stability of desglymidodrinein solution
Based on comparison of peak areas

A short description of data set [2]: Stability of desglymidodrine (calibration curve of desglymidodrine). The class given is physicochemical.
For data set [3] the following is noted: Tsutsui, n = 5 healthy volunteers, label = administered drug, cited from earlier work.
The subject of a further data set is pilomotor reaction. Particulars: oral, seven healthy volunteers; cited from earlier work.
In data set [4] the test system is blood pressure. Particulars: cited from earlier work.
In data set [5] the test system is blood pressure. Particulars: oral single dose; cited from earlier work.
The mark [6] stands for this setting: solution in Buffer pH 7.4, 0 days.

For the compound `COc1ccc(OC)c(C(O)CN)c1` (stereo not drawn) [desglymidodrine, alpha-(aminomethyl)-2,5-dimethoxy-benzenemethanol], the “peak area, 0 days” value in data set [1] (solution in 0.1N HCl, 0 days) worked out at 1548689; in data set [1] (setting [6]), 1341613; in data set [1] (solution in Water, 0 days) it was 1582140. Moreover, the “0 days (peak area), autoclave series” value turned out to be 99 in data set [1] (solution in 0.1N HCl, 0 days); 102 in data set [1] (setting [6]); 100 in data set [1] (solution in Water, 0 days). Further, the “peak area, 7 days” value is listed as 1516212 in data set [1] (solution in 0.1N HCl, 7 days); 1289393 in data set [1] (solution in Buffer pH 7.4, 7 days); 1601999 in data set [1] (solution in Water, 7 days). Besides, the “Autoclave 120° C.” value stood at 101 in data set [1] (solution in 0.1N HCl, after autoclave 120° C.); 102 in data set [1] (solution in Buffer pH 7.4, after autoclave 120° C.); 100 in data set [1] (solution in Water, after autoclave 120° C.). In addition, the “content of desglymidodrine, 14 days” value amounted to 103 in data set [2] (Glass, 25° C./60% RH 1.2mioluxh); 103 in data set [2] (Glass, 25° C./60% RH); 102 in data set [2] (Glass, 40° C./75% RH); 102 in data set [2] (Open petri dish, 25° C./60% RH); 102 in data set [2] (Open petri dish, 40° C./75% RH). Also, the “content of desglymidodrine, 0 days” value came out at 100 in data set [2] (Glass, 25° C./60% RH) and 100 in data set [2] (Open petri dish, 25° C./60% RH). Moreover, the “content of desglymidodrine, 21 days” value in data set [2] (Glass, 25° C./60% RH) was found to be 100; in data set [2] (Glass, 40° C./75% RH), 100; in data set [2] (Open petri dish, 25° C./60% RH) it was 100; in data set [2] (Open petri dish, 40° C./75% RH), 97. In addition, in data set [3] (analyte desglymidodrine), the Tmax desglymidodrine is reported as 1.2 ± 0.2 h. In the data set on pilomotor reaction, the “duration of effect (pilomotor reaction)” value is reported as 160 (135-185) min. Further, the “time to occurrence of pilomotor reaction” value with pilomotor reaction is 34 ± 25 min. Further, the “duration of blood pressure effect” value in the data set with blood pressure [4] (intravenous injection of 5 mg) is 3 to 4 min.

For the compound `COc1ccc(OC)c(C(O)CNC(=O)CN)c1` (stereo not drawn) [midodrine, 2-amino-N-[2-(2,5-dimethoxyphenyl)-2-hydroxyethyl]-acetamide, reference compound], the Tmax midodrine in data set [3] (analyte midodrine) was 1.4 ± 0.2 h. In the data set with pilomotor reaction, the “duration of effect (pilomotor reaction)” value is 150 (30-240) min and the “time to occurrence of pilomotor reaction” value is 74 ± 29 min. Besides, the “intravenous dose as potent as 5 mg desglymidodrine i.v. with respect to increase of blood pressure” value in the data set on blood pressure [4] (intravenous) is 20 to 25 mg. Besides, in the data set on blood pressure [5], the “persistence of pressor effect” value is 3 to 6 h and the “time until pressor effect is manifest” value is 20 to 90 min.

(Values after US20020147232A1 (priority 2000, published 2002).)
